In US20190256499A1, “SUBSTITUTED QUINOXALINE DERIVATIVES AS INHIBITORS OF PFKFB” (priority 2016, published 2019):
Values after ≈ are worked out from the molar mass of the structure shown.

Key:
[1] = Microsomal stability (intrinsic clearance), mouse liver microsomes; type: in vitro ADME; set-up: microsomal CLint: dose or concentration left out as unconfirmed; conditions: mouse, liver microsomes, pH 7.4, mouse liver microsomes
Text: (§1) A microsomal stability assay is used to measure in vitro clearance (Clint). The assay involves measuring the rate of disappearance of a compound due to its intrinsic attitude to be metabolized (“intrinsic” meaning that the disappearance is not affected by other properties like permeability, binding etc. that play a role when quantifying in vivo clearance). The microsomal stability (intrinsic clearance, Clint) and thus metabolic stability is generally given as μl/min/mg protein. It can be visualized as the volume of solution that 1 mg of microsomes is able to clear of the compound in one minute.
(§2) A Tecan Genesis workstation (RSP 150/8) was used for to perform the microsomal incubations. Analysis was carried out using a Waters ACQUITY UPLC system coupled to an ABSciex API3000 mass spectrometer. Data analysis was performed using Assay Explorer (Symyx).
(§3) Mobile phases: A=0.1% formic acid in water; B=acetonitrile
(§4) Flow rate: 0.750 mL/min; Detection: ESI, MRM; Injection: 10 μL; Column temperature: 50° C.
(§5) Potassium phosphate buffer: 0.05 M potassium phosphate buffer pH 7.4 containing 1 mM MgCl2 NADPH (nicotinamide adenine dinucleotide phosphate): 22.5 mg NADPH-Na4 in 1.8 ml potassium phosphate buffer Acetonitrile: 50 Vol % acetonitrile (1 volume acetonitrile, 1 volume water) DMSO: 20 Vol % DMSO in water Stock solution of 20 mg/ml human or mouse liver microsomes (protein)/ml in phosphate buffer Stock solution of 10 mM compound in 100% DMSO

[2] = Microsomal stability (intrinsic clearance), human liver microsomes; type: in vitro ADME; set-up: microsomal CLint: dose or concentration left out as unconfirmed; conditions: human, liver microsomes, pH 7.4, human liver microsomes
Text: as §1, §2, §3, §4, §5

Kinetic solubility = type: physicochemical; conditions: phosphate buffer, pH 7.4, aqueous buffer, kinetic from dmso stock, phosphate buffer 20 mM pH 7.4, 2% DMSO, room temperature
Method: Kinetic solubility of compounds of the present invention were tested according the following procedure.
(a) Buffer Solution Phosphate Buffer 20 mM pH 7.4 is prepared using Sorensen Phosphate Buffer 0.2 M pH 7.4 (EMS) in a 1000 mL volumetric flask (b) 2% DMSO in Phosphate Buffer 20 mM pH 7.4 is prepared by using 1 mL Dimethylsulfoxide (Merck) and 49 ml Sorensen Phosphate Buffer 20 mM pH 7.4 (c) Acetonitrile/Methanole/Eluent A (1:1:2; v/v/v) is prepared by using 50 mL Acetonitrile (Merck), 50 mL Methanol (Merck) and 100 mL Eluent A (d) Eluent A is prepared by using 1 mL Formic Acid (Merck) and 999 mL Ultrapure water (e) Eluent B is prepared by using 1 mL Formic Acid (Merck) and 999 mL Acetonitrile (Merck) (f) Filtration plate: Millipore MultiScreen HTS HV (0.45 μm) 96 Well (Millipore)
98 μL buffer solution (a) is added into a well of a 96 well filtration plate (f). Then 2 μL of 10 mM test compound solution in DMSO (Remp tube) is added. The filtration plate is incubated at room temperature for 120 minutes while agitating at 250 rpm and centrifuged with the PP-Plate (g) as receiver plate below (2500 rpm, 3 min). The 50 μL of filtrate is taken from the receiver plate and mixed with 50 μL of 2% DMSO in buffer pH 7.4 solution (b) (dilution factor=2) in a HPLC Vial (i)+(j).
Standard is prepared by diluting 2 μL of the same 10 mM test compound solution (Remp tube) diluted with 198 μL Acetonitrile/Methanole/Eluent A (1:1:2; v/v/v) (c) to prepare a 100 μM standard solution in a HPLC Vial (i)+(j).
Column temperature: 37° C. Autosampler: room temperature (approx. 25° C.) Gradient programme: […]
Injection volume: 10 μL Wavelength: Suitable wavelength (maximum sensitivity) selected out of wavelength range of 190-400 nm using a DAD detector.
L [μg/mL]=(area sample*concentration standard*dilution factor sample)/(area standard*dilution factor standard)
S [mol/L]=[…] Calculation: […]

[3] = target: T1, Human recombinant His-tagged PFKFB3 (Homo sapiens, UniProt Q16875); assay: PFKFB3 IC50 determination assay (modified ADP-Glo in vitro kinase assay); type: biochemical; conditions: human recombinant PFKFB3 25 nM, ATP 20 μM, fructose-6-phosphate 2 μM, 2 h, rt; read-out: PFKFB IC50
T1 construct: His; made in house
T1 sequence (Q16875 whole entry): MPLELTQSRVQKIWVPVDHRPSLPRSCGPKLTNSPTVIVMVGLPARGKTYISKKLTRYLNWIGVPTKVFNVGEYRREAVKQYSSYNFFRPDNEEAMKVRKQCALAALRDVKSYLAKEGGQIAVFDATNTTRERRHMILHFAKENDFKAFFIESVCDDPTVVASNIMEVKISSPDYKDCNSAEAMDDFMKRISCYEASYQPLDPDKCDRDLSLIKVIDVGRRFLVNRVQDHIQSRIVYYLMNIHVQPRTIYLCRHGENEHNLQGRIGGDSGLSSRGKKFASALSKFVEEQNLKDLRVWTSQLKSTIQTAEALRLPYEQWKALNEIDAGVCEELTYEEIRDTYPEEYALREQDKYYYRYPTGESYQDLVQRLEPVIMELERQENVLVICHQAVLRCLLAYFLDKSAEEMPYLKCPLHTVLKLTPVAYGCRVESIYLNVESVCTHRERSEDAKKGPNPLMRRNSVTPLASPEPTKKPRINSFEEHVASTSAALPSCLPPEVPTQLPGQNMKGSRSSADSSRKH
Method: In vitro kinase assay used to determine IC50 values for tested inhibitors is based on a modified ADP-Glo™ system (Promega) and consists of two parts:
1. Kinase reaction—performed in optimized conditions. At this step PFKFB3 phosphorylates its substrate fructose-6-phosphate using ATP as a source of phosphate to produce fructose-2,6-bisphosphate and ADP. Reaction is performed at Km values for ATP and substrate using optimized buffer composition and time of the reaction. Human recombinant His-tagged PFKFB3 (PFKFB3 BATCH II SEC) with confirmed activity is produced and purified in-house. 2. Detection of ADP as a product of the reaction using ADP-Glo™ system. This part is conducted by using the commercially available kit ADP-Glo™ Kinase Assay (Promega, cat. No# V9103) according to manufacturer's instruction, modified by 5× dilutions of assay reagents (both ADP-Glo™ Reagent and Kinase Detection Solution). Reproducibility and reliability of this modification is confirmed in an optimization process.
Test compounds are dissolved in DMSO and then transferred to the V-bottom 96-well plate. For IC50 determination ten 10× serial dilutions starting from 100 μM are prepared.
Two mixes are prepared on ice: Mix 1—containing appropriate kinase amount in 2× reaction buffer (100 mM TRIS pH 8.0) and Mix 2—containing 2.31× concentrated substrate (Fructose-6-phosphate) and ATP in MilliQ water. 15 μL per well of Mix 1 is transferred to assay wells of 96-well white plate. Next, 2 μl of 15× concentrated test compound in DMSO is added to Mix 1 for 20 min pre-incubation, followed by addition of Mix 2 (13 μl/well). Total reaction volume is 30 μL per well. Samples are tested in duplicates. Final concentration of DMSO in the reaction is 6.7%. Conditions needed for performing PFKFB3 (PFKFB3 BATCH II SEC) in vitro kinase assay are given below:
This protocol is based on Technical Bulletin, ADP-Glo™ Kinase Assay (Promega) and is adapted to 96-well plate containing 30 μL reaction mixture:
30 μL of 5× diluted ADP-Glo™ Reagent is added to each well of 96-well plate containing 30 μL of reaction mixture. The plate is incubated for 90 minutes on a shaker at rt. 60 μL of 5× diluted Kinase Detection Solution is added to each well of 96-well plate containing 60 μL of the solution (ratio of kinase reaction volume to ADP-Glo™ Reagent volume to Kinase Detection Solution volume is maintained at 1:1:2). Plate is incubated for 40 minutes on a shaker at rt, protected from light. Luminescence is measured in the plate reader Synergy 2 (BioTek).
Luminescent readouts for compounds tested in 10 concentrations (routinely from 100 μM to […], […] serial dilutions) in duplicates, as well as for positive control, are first normalized to no-substrate negative control by its subtraction. In the next step, % of normalized positive control is calculated for each data point and plotted against test compound concentration:
% of control—percent of positive control normalized to no-substrate negative control Lumcpd—luminescence of test compound Lumneg—luminescence of no-substrate negative control Lumpos—luminescence of positive control
IC50 parameter is determined by the GraphPad Prism 5.0 software [log(inhibitor) vs. response—Variable slope (four parameters)].

Row | SMILES | microsomal CLint [1] [µL/min/mg] | microsomal CLint [2] [µL/min/mg] | solubility kinetic at 120 min (Kinetic solubility) [µM] | IC50 [3] [nM]
1 | COc1ccc([C@@H](Nc2cc(-c3ccc4ccn(C)c4c3)c3nccnc3c2)c2cnnn2C)cn1 [Comparative Example 3, N—[(R)-(6-methoxypyridin-3-yl)(1-methyl-1H-1,2,3-triazol-5-yl)methyl]-8-(1-methyl-1H-indol-6-yl)quinoxalin-6-amine, reference compound] | 287 | 267 | 22 (≈ 10.5 µg/mL) | 530
2 | Cn1ccc2ccc(-c3cc(NC(c4cccnc4)c4ccc(=O)[nH]n4)cc4nccnc34)cc21 (centres unmarked) [Example 1, 6-{[8-(1-Methyl-1H-indol-6-yl)-quinoxalin-6-ylamino]-pyridin-3-yl-methyl}-2H-pyridazin-3-one] | 122 | 78 | 69 (≈ 31.7 µg/mL) | 32
